Ten molecules from BindingDB's records for PubMed 11714898 (Creighton University, 2001) can be followed below.

Experiment [1] deals with T1, Receptor activity-modifying protein 1 (Sus scrofa, UniProt Q867C0).
T1 sequence (Q867C0 whole entry): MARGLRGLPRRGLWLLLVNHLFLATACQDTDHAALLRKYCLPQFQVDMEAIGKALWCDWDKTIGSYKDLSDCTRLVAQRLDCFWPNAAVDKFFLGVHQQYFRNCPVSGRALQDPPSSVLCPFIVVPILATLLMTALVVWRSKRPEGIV

For experiment [2], the target named is Calcitonin gene-related peptide type 1 receptor (Sus scrofa, UniProt Q8WN93).
Chain of Calcitonin gene-related peptide type 1 receptor (Q8WN93 whole entry): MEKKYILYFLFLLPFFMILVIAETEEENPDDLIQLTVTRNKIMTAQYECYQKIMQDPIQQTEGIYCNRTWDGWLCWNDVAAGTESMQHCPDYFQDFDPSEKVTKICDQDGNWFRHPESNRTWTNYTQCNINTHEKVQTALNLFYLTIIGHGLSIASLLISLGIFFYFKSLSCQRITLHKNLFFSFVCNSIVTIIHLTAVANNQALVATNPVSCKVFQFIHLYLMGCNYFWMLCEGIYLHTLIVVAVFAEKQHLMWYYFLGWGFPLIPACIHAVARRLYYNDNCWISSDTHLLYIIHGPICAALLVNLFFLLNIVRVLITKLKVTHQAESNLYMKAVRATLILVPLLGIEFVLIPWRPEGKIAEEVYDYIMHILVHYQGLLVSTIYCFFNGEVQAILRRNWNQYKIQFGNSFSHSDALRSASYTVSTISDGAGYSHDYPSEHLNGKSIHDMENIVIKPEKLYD

Residues, ends and D or L forms follow the SMILES beside them.

The molecule `CC(C)C[C@H](NC(=O)CNC(=O)[C@H](C)NC(=O)[C@H](CC(C)C)NC(=O)[C@H](CCCNC(=N)N)NC(=O)[C@H](Cc1cnc[nH]1)NC(=O)[C@@H](NC(=O)[C@@H](NC(=O)[C@@H]1CSSC[C@H](NC(=O)[C@H](C)N)C(=O)N[C@@H](CC(=O)O)C(=O)N[C@@H]([C@@H](C)O)C(=O)N[C@@H](C)C(=O)N[C@@H]([C@@H](C)O)C(=O)N1)C(C)C)[C@@H](C)O)C(=O)N[C@@H](CC(C)C)C(=O)N[C@@H](CO)C(=O)N[C@@H](CCCNC(=N)N)C(=O)N[C@@H](CO)C(=O)NCC(=O)NCC(=O)N[C@H](C(=O)N[C@H](C(=O)N[C@@H](CCCCN)C(=O)N[C@@H](CC(N)=O)C(=O)N[C@@H](CC(N)=O)C(=O)N[C@@H](Cc1ccccc1)C(=O)N[C@H](C(=O)N1CCC[C@H]1C(=O)N[C@H](C(=O)N[C@@H](CC(N)=O)C(=O)N[C@H](C(=O)NCC(=O)N[C@@H](CO)C(=O)N[C@@H](CCCCN)C(=O)N[C@@H](C)C(=O)N[C@@H](Cc1ccccc1)C(N)=O)C(C)C)[C@@H](C)O)C(C)C)C(C)C)C(C)C` [h alpha-CGRP] displayed a Ki in experiment [1] of 0.08 nM.

For the molecule `CC(C)C[C@H](NC(=O)[C@H](CCCNC(=N)N)NC(=O)[C@H](Cc1cnc[nH]1)NC(=O)[C@@H](NC(=O)[C@@H](NC(=O)[C@@H]1CSSC[C@H](NC(=O)[C@H](C)N)C(=O)N[C@@H](CC(=O)O)C(=O)N[C@@H]([C@@H](C)O)C(=O)N[C@@H](C)C(=O)N[C@@H]([C@@H](C)O)C(=O)N1)C(C)C)[C@@H](C)O)C(=O)N[C@@H](C)C(=O)N1CCC[C@H]1C(=O)N[C@@H](CC(C)C)C(=O)N[C@@H](CC(C)C)C(=O)N[C@@H](CO)C(=O)N[C@@H](CCCNC(=N)N)C(=O)N[C@@H](CO)C(=O)NCC(=O)NCC(=O)N[C@H](C(=O)N[C@H](C(=O)N[C@@H](CCCCN)C(=O)N[C@@H](CC(N)=O)C(=O)N[C@@H](CC(N)=O)C(=O)N[C@@H](Cc1ccccc1)C(=O)N[C@H](C(=O)N1CCC[C@H]1C(=O)N[C@H](C(=O)N[C@@H](CC(N)=O)C(=O)N[C@H](C(=O)NCC(=O)N[C@@H](CO)C(=O)N[C@@H](CCCCN)C(=O)N[C@@H](C)C(=O)N[C@@H](Cc1ccccc1)C(N)=O)C(C)C)[C@@H](C)O)C(C)C)C(C)C)C(C)C` [[Pro14]h alpha-CGRP] (HELM PEPTIDE1{A.C.D.T.A.T.C.V.T.H.R.L.A.P.L.L.S.R.S.G.G.V.V.K.N.N.F.V.P.T.N.V.G.S.K.A.F.[am]}$PEPTIDE1,PEPTIDE1,2:R3-7:R3$$$V2.0), the Ki in experiment [2] amounted to 9 nM; in experiment [1] it was 5.5 nM.

With `CC(C)C[C@H](NC(=O)CNC(=O)[C@H](C)NC(=O)[C@H](CC(C)C)NC(=O)[C@H](CCCN=C(N)N)NC(=O)[C@H](Cc1cnc[nH]1)NC(=O)[C@@H](NC(=O)[C@@H](N)C(C)C)[C@@H](C)O)C(=O)N[C@@H](CC(C)C)C(=O)N[C@@H](CO)C(=O)N[C@@H](CCCN=C(N)N)C(=O)N[C@@H](CO)C(=O)NCC(=O)NCC(=O)N[C@H](C(=O)N[C@H](C(=O)N[C@@H](CCCCN)C(=O)N[C@@H](CC(N)=O)C(=O)N[C@@H](CC(N)=O)C(=O)N[C@@H](Cc1ccccc1)C(=O)N[C@H](C(=O)N1CCC[C@H]1C(=O)N[C@H](C(=O)N[C@@H](CC(N)=O)C(=O)N[C@H](C(=O)NCC(=O)N[C@@H](CO)C(=O)N[C@@H](CCCCN)C(=O)N[C@@H](C)C(=O)N[C@@H](C)C(N)=O)C(C)C)[C@@H](C)O)C(C)C)C(C)C)C(C)C` [[Ala37]h alpha-CGRP8-37] (H-VTHRLAGLLSRSGGVVKNNFVPTNVGSKAA-NH2), the Ki in experiment [2] turned out to be 500 nM; in experiment [1], 1020 nM.

With `CC(C)C[C@H](NC(=O)CNC(=O)[C@H](C)NC(=O)[C@H](CC(C)C)NC(=O)[C@H](CCCN=C(N)N)NC(=O)[C@H](Cc1cnc[nH]1)NC(=O)[C@@H](NC(=O)[C@@H](NCc1ccc(O)cc1)C(C)C)[C@@H](C)O)C(=O)N[C@@H](CC(C)C)C(=O)N[C@@H](CO)C(=O)N[C@@H](CCCN=C(N)N)C(=O)N[C@@H](CO)C(=O)NCC(=O)NCC(=O)N[C@H](C(=O)N[C@H](C(=O)N[C@@H](CCCCN)C(=O)N[C@@H](CC(N)=O)C(=O)N[C@@H](CC(N)=O)C(=O)N[C@@H](Cc1ccccc1)C(=O)N[C@H](C(=O)N1CCC[C@H]1C(=O)N[C@H](C(=O)N[C@@H](CC(N)=O)C(=O)N[C@H](C(=O)NCC(=O)N[C@@H](CO)C(=O)N[C@@H](CCCCN)C(=O)N[C@@H](C)C(=O)N[C@@H](Cc1ccccc1)C(N)=O)C(C)C)[C@@H](C)O)C(C)C)C(C)C)C(C)C` [[N-benzol]h alpha-CGRP8-37], the Ki in experiment [2] worked out at 0.27 nM; in experiment [1], 0.072 nM.

`CC(=O)N[C@H](C(=O)N[C@H](C(=O)N[C@@H](Cc1cnc[nH]1)C(=O)N[C@@H](CCCN=C(N)N)C(=O)N[C@@H](CC(C)C)C(=O)N[C@@H](C)C(=O)NCC(=O)N[C@@H](CC(C)C)C(=O)N[C@@H](CC(C)C)C(=O)N[C@@H](CO)C(=O)N[C@@H](CCCN=C(N)N)C(=O)N[C@@H](CO)C(=O)NCC(=O)NCC(=O)N[C@H](C(=O)N[C@H](C(=O)N[C@@H](CCCCN)C(=O)N[C@@H](CC(N)=O)C(=O)N[C@@H](CC(N)=O)C(=O)N[C@@H](Cc1ccccc1)C(=O)N[C@H](C(=O)N1CCC[C@H]1C(=O)N[C@H](C(=O)N[C@@H](CC(N)=O)C(=O)N[C@H](C(=O)NCC(=O)N[C@@H](CO)C(=O)N[C@@H](CCCCN)C(=O)N[C@@H](C)C(=O)N[C@@H](Cc1ccccc1)C(N)=O)C(C)C)[C@@H](C)O)C(C)C)C(C)C)C(C)C)[C@@H](C)O)C(C)C` [[N-acetyl]h alpha-CGRP8-37] came in with a Ki in experiment [1] of 1.3 nM.

Take `CC(C)C[C@H](NC(=O)CNC(=O)[C@H](C)NC(=O)[C@H](CC(C)C)NC(=O)[C@H](CCCN=C(N)N)NC(=O)[C@H](Cc1cnc[nH]1)NC(=O)[C@@H](NC(=O)[C@@H](N)C(C)C)[C@@H](C)O)C(=O)N[C@@H](CC(C)C)C(=O)N[C@@H](CO)C(=O)N[C@@H](CCCN=C(N)N)C(=O)N[C@@H](CO)C(=O)NCC(=O)NCC(=O)N[C@H](C(=O)N[C@H](C(=O)N[C@@H](CCCCN)C(=O)N[C@@H](CC(N)=O)C(=O)N[C@@H](CC(N)=O)C(=O)N[C@@H](Cc1ccccc1)C(=O)N[C@H](C(=O)N1CCC[C@H]1C(=O)N[C@H](C(=O)N[C@@H](CC(N)=O)C(=O)N[C@H](C(=O)NCC(=O)N[C@@H](CO)C(=O)N[C@@H](CCCCN)C(=O)N[C@@H](C)C(=O)N[C@@H](CC1CCCCC1)C(N)=O)C(C)C)[C@@H](C)O)C(C)C)C(C)C)C(C)C` [[Cha37]h alpha-CGRP8-37] (HELM PEPTIDE1{V.T.H.R.L.A.G.L.L.S.R.S.G.G.V.V.K.N.N.F.V.P.T.N.V.G.S.K.A.[Cha].[am]}$$$$V2.0): the Ki in experiment [2] was found to be 32.7 nM; in experiment [1] it was 37.9 nM.

For `CC(C)C[C@H](NC(=O)CNC(=O)[C@H](C)NC(=O)[C@H](CC(C)C)NC(=O)[C@H](CCCNC(=N)N)NC(=O)[C@H](Cc1cnc[nH]1)NC(=O)[C@@H](NC(=O)[C@@H](NC(=O)[C@@H]1NC(=O)[C@H]([C@@H](C)O)NC(=O)[C@H](C)NC(=O)[C@H]([C@@H](C)O)NC(=O)[C@H](CC(=O)O)NC(=O)[C@H](NC(=O)[C@H](C)N)C(C)(C)SSC1(C)C)C(C)C)[C@@H](C)O)C(=O)N[C@@H](CC(C)C)C(=O)N[C@@H](CO)C(=O)N[C@@H](CCCNC(=N)N)C(=O)N[C@@H](CO)C(=O)NCC(=O)NCC(=O)N[C@H](C(=O)N[C@H](C(=O)N[C@@H](CCCCN)C(=O)N[C@@H](CC(N)=O)C(=O)N[C@@H](CC(N)=O)C(=O)N[C@@H](Cc1ccccc1)C(=O)N[C@H](C(=O)N1CCC[C@H]1C(=O)N[C@H](C(=O)N[C@@H](CC(N)=O)C(=O)N[C@H](C(=O)NCC(=O)N[C@@H](CO)C(=O)N[C@@H](CCCCN)C(=O)N[C@@H](C)C(=O)N[C@@H](Cc1ccccc1)C(N)=O)C(C)C)[C@@H](C)O)C(C)C)C(C)C)C(C)C` [[D-Pen2,7]h alpha-CGRP], the Ki was 21 nM in experiment [2] and 15.2 nM in experiment [1].

For the molecule `CC(C)[C@H](NC(=O)[C@H](CC(N)=O)NC(=O)[C@@H](NC(=O)[C@@H]1CCCN1C(=O)[C@@H](NC(=O)[C@@H](N)Cc1ccccc1)C(C)C)[C@@H](C)O)C(=O)NCC(=O)N1CCC[C@H]1C(=O)N[C@@H](Cc1ccccc1)C(=O)N[C@@H](C)C(=O)N[C@@H](Cc1ccccc1)C(N)=O` [[Pro34,Phe35]h alpha-CGRP27-37] (H-FVPTNVGPFAF-NH2), the Ki was found to be 50.7 nM in experiment [2] and 118 nM in experiment [1].

Turning to `CC(=O)NCSC[C@H](NC(=O)[C@H](C)N)C(=O)N[C@@H](CC(=O)O)C(=O)N[C@H](C(=O)N[C@@H](C)C(=O)N[C@H](C(=O)N[C@@H](CSCNC(C)=O)C(=O)N[C@H](C(=O)N[C@H](C(=O)N[C@@H](Cc1cnc[nH]1)C(=O)N[C@@H](CCCNC(=N)N)C(=O)N[C@@H](CC(C)C)C(=O)N[C@@H](C)C(=O)NCC(=O)N[C@@H](CC(C)C)C(=O)N[C@@H](CC(C)C)C(=O)N[C@@H](CO)C(=O)N[C@@H](CCCNC(=N)N)C(=O)N[C@@H](CO)C(=O)NCC(=O)NCC(=O)N[C@H](C(=O)N[C@H](C(=O)N[C@@H](CCCCN)C(=O)N[C@@H](CC(N)=O)C(=O)N[C@@H](CC(N)=O)C(=O)N[C@@H](Cc1ccccc1)C(=O)N[C@H](C(=O)N1CCC[C@H]1C(=O)N[C@H](C(=O)N[C@@H](CC(N)=O)C(=O)N[C@H](C(=O)NCC(=O)N[C@@H](CO)C(=O)N[C@@H](CCCCN)C(=O)N[C@@H](C)C(=O)N[C@@H](Cc1ccccc1)C(N)=O)C(C)C)[C@@H](C)O)C(C)C)C(C)C)C(C)C)[C@@H](C)O)C(C)C)[C@@H](C)O)[C@@H](C)O` [[Cys(ACM)2,7]h alpha-CGRP], the values for the Ki in experiment [2] and in experiment [1] were 38.4 nM and 32 nM, respectively.

Consider `CC(C)C[C@H](NC(=O)CNC(=O)[C@H](C)NC(=O)[C@H](CC(C)C)NC(=O)[C@H](CCCNC(=N)N)NC(=O)[C@H](Cc1cnc[nH]1)NC(=O)[C@@H](NC(=O)[C@@H](N)C(C)C)[C@@H](C)O)C(=O)N[C@@H](CC(C)C)C(=O)N[C@@H](CO)C(=O)N[C@@H](CCCNC(=N)N)C(=O)N[C@@H](CO)C(=O)NCC(=O)NCC(=O)N[C@H](C(=O)N[C@H](C(=O)N[C@@H](CCCCN)C(=O)N[C@@H](CC(N)=O)C(=O)N[C@@H](CC(N)=O)C(=O)N[C@@H](Cc1ccccc1)C(=O)N[C@H](C(=O)N1CCC[C@H]1C(=O)N[C@H](C(=O)N[C@@H](CC(N)=O)C(=O)N[C@H](C(=O)NCC(=O)N[C@@H](CO)C(=O)N[C@@H](CCCCN)C(=O)N[C@@H](C)C(=O)N[C@@H](Cc1ccccc1)C(N)=O)C(C)C)[C@@H](C)O)C(C)C)C(C)C)C(C)C`, for which the inhibition constant Ki in experiment [1] turned out to be 5.7 nM.
